In US20110173718A1, “HERBICIDE TOLERANT PLANTS” (SYNGENTA CROP PROTECTION, INC., priority 2008, published 2011):
Several values for one entry are separate records, joined by “and”; a condition that tells them apart may be missing. Equal values may be shown once.

Columns and labels:
[1] = tested on: Arabidopsis HST transgenic tobacco plants; assay: Glasshouse spray test, Arabidopsis HST transgenic tobacco; assay type: in vivo; conditions: for Damage % 5 DAT / Damage % 10 DAT: 10 g/ha, individual T0 lines
Description: For example the Arabidopsis HST SEQ ID # 11 is cloned behind a double 35s CMV promoter sequence and a TMV translational enhancer sequence and in front of the 3′ terminator from the nos gene. This expression cassette is ligated into pMJB1 (described in WO98/20144) and then into pBIN19 and then transformed into Agrobacterium tuniqfaciens strains LBA4404 prior to plant transformation.
For example, the full length Arabidopsis HST seq ID # 11 is fused to the TMV translational enhancer sequence (SEQ ID #33) by overlapping PCR and, at the same time, 5′ XhoI site and a 3′KpnI site are added by PCR. Site-directed mutagenesis is performed to remove an internal XhoI site. The TMV/HPPD fusion is removed from the pBIN19 by digestion with XhoI/KpnI and is replaced by the TMV/HST fusion (SEQ ID #34). The TMV/HST fusion is now cloned behind a double 35s promoter and in front of the 3′ terminator from the nos gene. Again the modified pBIN19 vector (‘pBinAT HST’) is then transformed into Agrobacterium tumefaciens strain LBA4404.
A master plate of Agrobacterium tumefaciens containing the binary vector pBinAT HST (described above) or analogous binary vector comprising a different HST is used to inoculate 10 ml LB containing 100 mg/1 Rifampicin plus 50 mg/1 Kanamycin using a single bacterial colony. This is incubated overnight at 28° C. shaking at 200 rpm. This entire overnight culture is used to inoculate a 50 ml volume of LA (plus antibiotics). Again this is cultured overnight at 28° C. shaking at 200 rpm. The Agrobacterium cells are pelleted by centrifuging at 3000 rpm for 15 minutes then resuspended in MS medium with 30 g/1 sucrose, pH 5.9 to an OD ([…])=0.6. This suspension is dispensed in 25 ml aliquots into petri dishes.
Clonal micro-propagated tobacco shoot cultures are used to excise young (not yet fully expanded) leaves. The mid rib and outer leaf margins are removed and discarded, the remaining lamina is cut into 1 cm squares. These are transferred to the Agrobacterium suspension for 20 minutes. Explants are then removed, dabbed on sterile filter paper to remove excess suspension then transferred to NBM medium (MS medium, 30 g/1 sucrose, 1 mg/1 BAP, 0.1 mg/1 NAA, pH 5.9, solidified with 8 g/1 Plantagar), with the abaxial surface of each explant in contact with the medium. Approximately 7 explants are transferred per plate, which are then sealed then maintained in a lit incubator at 25° C., 16 hour photoperiod for 3 days.
Explants are then transferred to NBM medium containing 100 mg/1 Kanamycin plus antibiotics to prevent further growth of Agrobacterium (200 mg/1 timentin with 250 mg/1 carbenicillin). Further subculture on to this same medium is then performed every 2 weeks.
As shoots start to regenerate from the callusing leaf explants these are removed to Shoot elongation medium (MS medium, 30 g/1 sucrose, 8 g/1 Plantagar, 100 mg/1 Kanamycin, 200 mg/1 timentin, 250 mg/1 carbenicillin, pH 5.9). Stable transgenic plants readily root within 2 weeks. To provide multiple plants per event to ultimately allow more than one herbicide test per transgenic plant all rooting shoots are micropropagated to generate 3 or more rooted clones.
Putative transgenic plants that are rooting and show vigorous shoot growth on the medium incorporating Kanamycin are analysed by PCR using primers that amplified a 500 bp fragment within the Arabidopsis HST transgene.
Rooted transgenic T0 plantlets are transferred from agar and potted into 50% peat, 50% John Innes soil no 3 or, for example, MetroMix® 380 soil (Sun Gro Horticulture, Bellevue, Wash.) with slow-release fertilizer in 3 inch round or 4 inch square pots and left regularly watered to establish for 8-12 d in the glass house. Glass house conditions are about 24-27° C. day; 18-21° C. night and approximately a 14 h (or longer in UK summer) photoperiod. Humidity is ˜65% and light levels up to 2000 μmol/m^2 at bench level. […]

weeds = assay: Glasshouse weed control by HST/HPPD (mesotrione) mixtures, post-emergence; assay type: in vivo; conditions: 14 DAT; for % damage, mesotrione alone: post-emergence, mesotrione 1 g/ha
Protocol: Weed seeds are planted out in trays containing suitable soil (for example 50% peat, 50% John Innes soil no 3) and grown in the glass house conditions under 24-27° C. day; 18-21° C. night and approximately a 14 h (or longer in UK summer) photoperiod. Humidity is ˜65% and light levels up to 2000 μmol/m^2 at bench level. Trays are sprayed with test chemicals dissolved in water with 0.2-0.25% X-77 surfactant and sprayed from a boom on a suitable track sprayer moving at about 2 mph in a suitable track sprayer (for example a DeVries spray chamber with the nozzle about 2 inches from the plant tops). Spray volume is suitably 500-1000 l/ha. Sprays are carried out both pre-emergence and over small plants at about 7-12 d post-emergence
Plants are assessed 14 DAT and herbicidal damage is scored on a scale from 0 to 100%. The HST inhibitor compound 2.30 (designated compound A in table 16 and 17), haloxydine (compound 1.1) and compound 2.13 (designated compound AE in tables 16 and 17) are sprayed at rates between 0 and 500 g/ha.

For `CS(=O)(=O)c1ccc(C(=O)C2C(=O)CCCC2=O)c([N+](=O)[O-])c1` [Mesotrione, mesotrione, reference compound], the “Damage % 5 DAT” value ([1]; T0 line 332) was 30%, the “Damage % 5 DAT” value ([1]; T0 line 351) was 50% and the “Damage % 5 DAT” value ([1]; T0 line 367) was 25%. The “Damage % 5 DAT” value ([1]; T0 line 404) was 45%, the “Damage % 5 DAT” value ([1]; T0 line 426) was 45% and the “Damage % 10 DAT” value ([1]; T0 line 332) was 10%. The “Damage % 10 DAT” value ([1]; T0 line 351) was 25%, the “Damage % 10 DAT” value ([1]; T0 line 367) was 10% and the “Damage % 10 DAT” value ([1]; T0 line 404) was 20%. For the same compound, the “Damage % 10 DAT” value ([1]; T0 line 426) was 20%, the “ht (herbicidal damage)” value ([1]; Arabidopsis HST T0 tobacco events (one value per event), 15 g/ha of mesotrione, 21 DAT) was 80 and 90 and 85 and 70 and 75 and the damage (weeds; 1 g/ha, pre- and post-emergence sprays) was less than 10%. The “% damage, mesotrione alone” value (weeds; ALOMY) was 0%, the “% damage, mesotrione alone” value (weeds; ECHCG) was 8% and the “% damage, mesotrione alone” value (weeds; SETFA) was 0%.
